In patent publication US6630310B1, “Assay for binding between carbohydrate and glycolipid” (Biopolymer Engineering Pharmaceutical, Inc., priority 1996, dated 2003):
“Also recorded” adds a separate entry of the source.

What was measured:
[1] = Specific binding of ^3H-PGG-Glucan to sphingolipids in the 96-well plate assay; design: ^3H-PGG-Glucan bound (specific binding): unit not given here; details: for ^3H-PGG-Glucan bound (specific binding): LacCer of defined fatty acid and long chain base, 96-well plate; for 3H-PGG-Glucan Bound (specific binding): sphingolipid immobilized in 96-well plate, 37° C.; for specific binding to ^3H-underivatized, aqueous soluble β(1-3)-glucan (in words): immobilized on a polystyrene 96-well plate
Procedure: Lactosyl ceramide or the sample to be measured was suspended in ethanol. Aliquots as specified were added in triplicate to the wells of a 96-well plate and air dried. The following components were premixed, then 100 μL was added to each well: saline (10 μL) or unlabelled, underivatized, aqueous soluble β(1-3)-glucan (10 μL of a 10 mg/ml stock), ^3H-underivatized, aqueous soluble β(1-3) glucan (10 μL of a 10 μg/ml stock), and HBSS (80 μL). Plates were incubated at 37° C. for 1.5 to 2 hours, then supernatants were removed from each well and discarded. Wells were rinsed with HBSS (200 μL) and SOLVABLE™ (100 μL) was added. The plate was incubated at 60° C. for 5 minutes, then supernatants were removed and counted.

[2] = test system: human leukocyte membranes; experiment: ^3H-PGG-Glucan binding to pretreated human leukocyte membranes; details: for effect of detergent pretreatment of membranes on specific binding (in words): membranes pretreated 5 minutes on ice (CHAPS 0.25%) (FIG. 9)
Procedure: Human leukocyte membranes were incubated in HBSS with or without 0.25% CHAPS for 5 minutes on ice, followed by centrifugation at 180,000×g, 4° C. for 45 minutes. Pellets were used in a binding assay with underivatized, aqueous soluble β(1-3)-glucan or dextran (avg. MW 71,000, Sigma Chemical Co., MO) as indicated at 1 mg/ml final concentration.
Human leukocyte membranes (500 μg protein) were incubated with sodium periodate at concentrations indicated in FIG. 12 (10 and 100 mM) for 30 minutes at room temperature, then centrifuged at 12,000×g for 10 minutes, rinsed and used in a binding assay (non-oil/sucrose; see FIG. 12). Protein-depleted membranes (derived from 1.87 mg human leukocyte membrane protein) were incubated in 0.1 M sodium periodate and treated as described above (FIG. 13).
An alternative procedure to that using the oil/sucrose gradient involved centrifuging 100 μl aliquots of the binding assay in microfuge tubes at 12,000×g, for five minutes, followed by rinsing the resultant pellet with HBSS. Pellets were then dissolved in SOLVABLE™ and radioactively determined as above.

[3] = test system: receptor for underivatized, aqueous soluble β(1-3)-glucan on human leukocyte membranes; experiment: Competition of ^3H-PGG-Glucan binding to human leukocyte membranes (oil/sucrose binding assay)
Procedure: Aminated glucan was prepared by reductive amination of curdlan and provided by Dr. Rolph Seljelid (University of Tromsφ, Tromsφ, Norway).
At the end of the incubation, 100 μl aliquots of reaction mixture were layered on top of a double layer density gradient consisting of 100 μl dibutyl phthalate (lower layer) and 100 μl 8% sucrose in PBS (upper layer) in 400 μl centrifuge tubes (Brinkman). The tubes were spun at 15,000×g for 4-5 minutes and the tips containing the membrane pellets were removed, incubated in 300 μl SOLVABLE™ (New England Nuclear, Boston, Mass.) overnight at 50° C. to dissolve the pellet, and then radioactivity determined by liquid scintillation counting. […] Alternatively, membranes were centrifuged directly in their incubation tubes at 15,000×g for 4-5 minutes at 37° C., the pellet washed with HBSS, then pellets solubilized and radioactivity determined by liquid scintillation counting.

[4] = Competition of ^3H-PGG-Glucan binding to lactosyl ceramide in 96-well plate assay (FIGS. 14, 15); design: species or system bovine; details: FIGS. 14 and 15
Source text: FIG. 14 is a graph of the comparison of underivatized, aqueous soluble β(1-3)-glucan and single helix competition of ^3H-underivatized, aqueous soluble β(1-3)-glucan binding in three assay formats. Underivatized, aqueous soluble β(1-3)-glucan or single helix glucan was used at designated concentrations to compete for ^3H-underivatized, aqueous soluble β(1-3)-glucan binding to lactosyl ceramide (LacCer) in a 96-well plate (triangles), or to lactosyl ceramide in reconstituted membranes (squares), or to human leukocyte membranes (circles). Open symbols represent underivatized, aqueous soluble β(1-3) glucan, and closed symbols represent single helix. Maximum competition was assigned at the highest concentration of underivatized, aqueous soluble β(1-3)-glucan used as competitor in each type of assay.
FIG. 15 is a graphic illustration of data showing that underivatized, aqueous soluble β(1-3) glucan and high molecular weight underivatized, aqueous soluble β(1-3) glucan (Network) compete more effectively for ^3H-underivatized, aqueous soluble β(1-3)-glucan binding to lactosyl ceramide in a 96-well plate assay than do single helix or laminarin. […]
Lactosyl ceramide or the sample to be measured was suspended in ethanol. […] The plate was incubated at 60° C. for 5 minutes, then supernatants were removed and counted.

[5] = addition at 0.1 mg/ml, ^3H-PGG-Glucan binding to human leukocyte membranes

CCCCCCCCCCCCCCCCCCCCCCCC(=O)NC(CO[C@@H]1O[C@H](CO)[C@@H](O[C@@H]2O[C@H](CO)[C@H](O)[C@H](O)[C@H]2O)[C@H](O)[C@H]1O)C(O)CCCCCCCCCCCCCCC (mixture of isomers) [N-Lignoceroyl-DL-dihydrolacto-cerebroside]
^3H-PGG-Glucan bound (specific binding) [1]: 0.00

CCCCCCCCCCCCCCCC(=O)NC(CO[C@@H]1O[C@H](CO)[C@@H](O[C@@H]2O[C@H](CO)[C@H](O)[C@H](O)[C@H]2O)[C@H](O)[C@H]1O)C(O)CCCCCCCCCCCCCCC (mixture of isomers) [N-Palmitoyl-DL-dihydrolacto-cerebroside]
^3H-PGG-Glucan bound (specific binding) [1]: 0.00

CCCCCCCCCCCCCCCCCC(=O)NC(CO[C@@H]1O[C@H](CO)[C@@H](O[C@@H]2O[C@H](CO)[C@H](O)[C@H](O)[C@H]2O)[C@H](O)[C@H]1O)C(O)CCCCCCCCCCCCCCC (mixture of isomers) [N-Stearoyl-DL-dihydrolacto-cerebroside]
^3H-PGG-Glucan bound (specific binding) [1]: 0.00

C[C@H](CCC(=O)NCCC[N+](C)(C)CCCS(=O)(=O)[O-])[C@H]1CC[C@H]2[C@@H]3[C@H](O)C[C@@H]4C[C@H](O)CC[C@]4(C)[C@H]3C[C@H](O)[C@]12C [CHAPS]
effect of detergent pretreatment of membranes on specific binding (in words) [2]: enhancement of specific binding

O=C(O)CN(CCOCCOCCN(CC(=O)O)CC(=O)O)CC(=O)O [EGTA]
% Control Binding ([3]; addition at 5 mM): 87%

CCCCCCCCCCCCCC=CC(O)C(COC1OC(CO)C(OC2OC(CO)C(O)C(O)C2O)C(O)C1O)NC(=O)CCCCCCCCCCCCCCC (stereo not drawn) [LacCer (HLM) C16:0]
^3H-PGG-Glucan bound (specific binding) [1]: 3.31

CCCCCCCCCCCCC/C=C/[C@@H](O)[C@H](CO[C@@H]1O[C@H](CO)[C@@H](O[C@@H]2O[C@H](CO)[C@H](O)[C@H](O)[C@H]2O)[C@H](O)[C@H]1O)NC(=O)CCCCCCCCCCCCCCCCC [LacCer (HLM) C18:0]
^3H-PGG-Glucan bound (specific binding) [1]: 1.93

CCCCCCCCCCCCCC=CC(O)C(COC1OC(CO)C(OC2OC(CO)C(O)C(O)C2O)C(O)C1O)NC(=O)CCCCCCCCCCCCCCCCCCCCC (stereo not drawn) [LacCer (HLM) C22:0]
^3H-PGG-Glucan bound (specific binding) [1]: 3.57

CCCCCCCCCCCCC/C=C/[C@@H](O)[C@H](CO[C@@H]1O[C@H](CO)[C@@H](O[C@@H]2O[C@H](CO)[C@H](O)[C@H](O)[C@H]2O)[C@H](O)[C@H]1O)NC(=O)CCCCCCCCCCCCCCCCCCCCCCC [LacCer (HLM) C24:0]
^3H-PGG-Glucan bound (specific binding) [1]: 3.14

CCCCCCCCCCCCC/C=C/[C@@H](O)[C@@H](N)CO [Sphingosine]
3H-PGG-Glucan Bound (specific binding) [1]: 0.02 ± 0.00 ng/μg sphingolipid

OC[C@H]1O[C@@H](O[C@@H]2[C@@H](O)[C@H](O[C@@H]3[C@@H](O)[C@H](O[C@@H]4[C@@H](O)[C@H](O[C@@H]5[C@@H](O)[C@H](O[C@@H]6[C@@H](O)[C@H](O[C@@H]7[C@@H](O)[C@H](O)O[C@H](CO)[C@H]7O)O[C@H](CO)[C@H]6O)O[C@H](CO)[C@H]5O)O[C@H](CO)[C@H]4O)O[C@H](CO)[C@H]3O)O[C@H](CO)[C@H]2O)[C@H](O)[C@@H](O)[C@@H]1O [laminariheptose]
inhibition of radioactively labeled underivatized, aqueous soluble β(1-3)-glucan binding to human leukocyte membranes (in words) [3]: no effect

CCCCCCCCO[C@@H]1O[C@H](CO)[C@@H](O)[C@H](O)[C@H]1O [octylglucoside]
effect of detergent pretreatment of membranes on specific binding (in words) [2]: enhancement of specific binding

[Na+].[O-][I+3]([O-])([O-])[O-] [sodium periodate]
effect of sodium periodate treatment of membranes on binding activity (in words) ([2]; 10 and 100 mM, 30 minutes at room temperature (FIGS. 12, 13)): decreased

Ceramides
3H-PGG-Glucan Bound (specific binding) [1]: 0.02 ± 0.01 ng/μg sphingolipid

Dextran
% Control Binding ([3]; addition at 1 mg/ml): 88%

Globoside
3H-PGG-Glucan Bound (specific binding) [1]: 0.00 ± 0.01 ng/μg sphingolipid

Glycogen
% Control Binding [3, 5]: 134%

Laminarin
inhibition of radioactively labeled underivatized, aqueous soluble β(1-3)-glucan binding to human leukocyte membranes (in words) [3]: do not inhibit; also recorded: not inhibited
% Control Binding ([3]; addition at 1 mg/ml): 83%
competition for ^3H-underivatized, aqueous soluble β(1-3)-glucan binding to LacCer in the 96-well plate assay (in words) [4]: does not compete efficiently

Lipopolysaccharide
% Control Binding [3, 5]: 89%

Mannan
% Control Binding ([3]; addition at 1 mg/ml): 88%

Sulfatides
3H-PGG-Glucan Bound (specific binding) [1]: 0.00 ± 0.01 ng/μg sphingolipid

galactosyl ceramides
specific binding to ^3H-underivatized, aqueous soluble β(1-3)-glucan (in words) [1]: significant specific binding

globotriaosyl ceramide [GlobotriaosylCer]
specific binding to ^3H-underivatized, aqueous soluble β(1-3)-glucan (in words) [1]: significant specific binding
3H-PGG-Glucan Bound (specific binding) [1]: 0.84 ± 0.13 ng/μg sphingolipid

lactosyl ceramide
specific binding to ^3H-underivatized, aqueous soluble β(1-3)-glucan (in words) [1]: significant specific binding
